Paper PMC11100219, “Dual-function antimicrobial-antibiofilm peptide hybrid to tackle biofilm-forming Staphylococcus epidermidis” (Annals of Clinical Microbiology and Antimicrobials, 2024)
Residues, ends and D or L forms follow the SMILES beside them.

Tests used:
[1] = tested on: human lung fibroblast MRC-5 cell lines (ATCC CCL-171); assay: MTT cytotoxicity assay; type: cell-based; conditions: MRC-5, 250 µg/mL (maximum concentration tested), 24 h
Procedure: The toxicity of peptide BiF2_5K7K against human lung fibroblast MRC-5 cell lines (ATCC CCL-171) was investigated by MTT colorimetric assay. Briefly, MRC-5 cells were cultured in Minimum Essential Medium [MEM; supplemented with 10% heat-inactivated FBS and 1% Penicillin-Streptomycin] in 5% CO2 at 37°C. Following an overnight incubation, MRC-5 cells were diluted to 10,000 cells/well and placed in 96-well microplates. Subsequently, they were exposed to BiF2_5K7K at 0.98 to 250 µg/mL. After incubation for 24 h, MTT solution (0.4 mg/mL) was added to each well and incubated for an additional 3 h under 5% CO2 at 37°C. The supernatant was then removed and 100 µL DMSO added, and absorbance was measured at 570 nm using a microplate reader.

S. epidermidis = assay: Serum stability by MIC in human serum; type: cell-based, Staphylococcus epidermidis; conditions: 10^6 CFU/mL, 24 h, 37°C
Procedure: The stability of BiF2_5K7K in the presence of human serum was assessed by evaluating the MIC values, as previously described. Human serum was subjected to heat inactivation at 56°C for 30 min. Bacterial suspensions were then adjusted to a concentration of 10^6 CFU/mL in MHB supplemented with 25% and 50% human serum. These suspensions were mixed with two-fold serially diluted concentrations of BiF2_5K7K (ranging from 0.98 to 250 µg/mL) and incubated at 37°C for 24 h. MICs were subsequently determined as described above. The study protocol was ethically approved by the Thammasat University Ethics Committee (COA No. 066/2562). All volunteers provided written informed consent.

## CC[C@H](C)[C@H](NC(=O)[C@H](CCCCN)NC(=O)[C@H](CCCCN)NC(=O)[C@@H](NC(=O)[C@H](CC(C)C)NC(=O)[C@@H](N)Cc1ccccc1)C(C)C)C(=O)N[C@@H](CCCCN)C(=O)N[C@@H](CCCCN)C(=O)N[C@H](C(=O)N[C@@H](CC(C)C)C(=O)N[C@@H](CCCNC(=N)N)C(=O)N[C@@H](CCCNC(=N)N)C(N)=O)[C@@H](C)CC [BiF2_5K7K] (H-FLVKKIKKILRR-NH2; N-terminus assumed)
[1]
  cell viability: > 99%
S. epidermidis; MHB with 25% heat-inactivated human serum
  MIC in the presence of human serum: 15.63 µg/mL
S. epidermidis; MHB with 50% heat-inactivated human serum
  MIC in the presence of human serum: 15.63 µg/mL
